Results from ChEMBL document CHEMBL2062519, “The β-Amyloid Hypothesis in Alzheimer's Disease: Seeing Is Believing” (ACS Med Chem Lett, 2012).

Target: Amyloid-beta precursor protein (Homo sapiens, UniProt P05067)
Assay: Binding affinity to human amyloid beta plaque

Sequence of Amyloid-beta precursor protein (P05067 whole entry): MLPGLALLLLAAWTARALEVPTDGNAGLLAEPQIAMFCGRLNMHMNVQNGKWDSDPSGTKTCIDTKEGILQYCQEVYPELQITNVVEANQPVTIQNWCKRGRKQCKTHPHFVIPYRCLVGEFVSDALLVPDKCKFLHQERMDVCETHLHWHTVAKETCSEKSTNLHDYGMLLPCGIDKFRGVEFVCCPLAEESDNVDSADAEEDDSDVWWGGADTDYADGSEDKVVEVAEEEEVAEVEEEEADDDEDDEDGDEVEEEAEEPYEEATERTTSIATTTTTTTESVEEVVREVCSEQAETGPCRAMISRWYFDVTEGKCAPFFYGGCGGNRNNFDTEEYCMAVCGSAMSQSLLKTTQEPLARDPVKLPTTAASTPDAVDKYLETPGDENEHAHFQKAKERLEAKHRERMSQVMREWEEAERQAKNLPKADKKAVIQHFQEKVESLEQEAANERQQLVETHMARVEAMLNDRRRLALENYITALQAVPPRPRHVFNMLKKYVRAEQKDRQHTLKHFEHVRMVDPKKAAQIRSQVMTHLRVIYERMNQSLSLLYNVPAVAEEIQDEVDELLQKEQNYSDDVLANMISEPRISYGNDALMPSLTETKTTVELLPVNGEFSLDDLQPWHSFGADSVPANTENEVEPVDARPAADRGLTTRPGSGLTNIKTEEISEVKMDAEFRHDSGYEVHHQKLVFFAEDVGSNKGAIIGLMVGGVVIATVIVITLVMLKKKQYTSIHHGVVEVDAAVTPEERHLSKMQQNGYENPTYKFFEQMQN

Ki: 0.7 nM
SMILES: CNc1ccc(-c2nc3ccc(O)cc3s2)cc1[18F] [FLUTEMETAMOL F 18]
